Type in all cases: cell-based
The subject of assay [1] is Thermus scotoductus SE-1. Description: Agar diffusion assay with cell free supernatant of producing strains. The following applies: zone diameter relative to Nisin A wild type (100). An outline of the steps:
(§1)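 Cell-free supernatant (50 µl) from overnight nisin A or variant-producing L. lactis cultures placed in wells of Castenholz agar seeded with indicator strain. Plates incubated 55°C for 3 days; zone of clearance measured, reflecting combined peptide yield and specific activity; triplicate.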
In general terms: In agar diffusion tests the substance spreads into inoculated agar from a disc or well.

Assay [2] concerns Thermus thermophilus HB27. Described as above. The following applies: zone diameter relative to Nisin A wild type (100). The gist of the method:
as §1

Assay [3] has as its system T. aquaticus. Briefly: Minimum inhibitory concentration assay (Thermus). The note with it: for MIC: pure peptide, mean of triplicate assays. The gist of the method: (§2)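 Read-out is visual: MIC is the lowest peptide concentration at which no growth appears after 3 days at 55°C. Triplicate cultures in Castenholz medium, ∼10^5 cfu/ml inoculum, in BSA-pretreated microtitre wells.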

Assay [4] has as its system T. brockianus. Description: Minimum inhibitory concentration assay (Thermus). The following applies: pure peptide, mean of triplicate assays. The gist of the method: as §2
Assay [5] deals with T. oshimai. Briefly: Minimum inhibitory concentration assay (Thermus). The note with it: pure peptide, mean of triplicate assays. An outline of the steps:
as §2

Assay [6] has as its system T. rehai. Briefly: Minimum inhibitory concentration assay (Thermus). The note with it: for MIC: pure peptide, mean of triplicate assays. The gist of the method:
as §2

In assay [7] the test system is T. scotoductus SE-1. Description: Minimum inhibitory concentration assay (Thermus). The following applies: pure peptide, mean of triplicate assays. An outline of the steps:
as §2

Assay [8] concerns T. thermophilus HB27. Description: Minimum inhibitory concentration assay (Thermus). The note with it: pure peptide, mean of triplicate assays. The gist of the method: as §2

Converted amounts (≈) assume the structure as drawn. “And” between values parts separate entries of the source, which are not always exact repeats. Equal values may be shown once. Marks after values point to notes of the source that are not given here.

As usually defined, the MIC is the smallest concentration in the dilution series that meets the test's criterion for growth inhibition. On to `C=C(NC(=O)[C@@H](NC(=O)[C@H](Cc1c[nH]cn1)NC(=O)[C@@H](NC(=O)[C@H](CO)NC(=O)[C@@H]1CS[C@@H](C)[C@H]2NC(=O)[C@H](C)NC(=O)[C@H](NC(=O)[C@H](CCCCN)NC(=O)[C@H](CCSC)NC(=O)[C@H](CC(N)=O)NC(=O)[C@@H]3CS[C@@H](C)[C@@H](NC(=O)[C@H](CCSC)NC(=O)[C@@H]4CS[C@@H](C)[C@@H](NC(=O)[C@@H]5CSC[C@@H](NC(=O)/C(=C/C)NC(=O)[C@@H](N)[C@@H](C)CC)C(=O)N[C@@H]([C@@H](C)CC)C(=O)NC(=C)C(=O)N[C@@H](CC(C)C)C(=O)N5)C(=O)N5CCC[C@H]5C(=O)NCC(=O)N4)C(=O)NCC(=O)N[C@@H](C)C(=O)N[C@@H](CC(C)C)C(=O)N[C@@H](CCSC)C(=O)NCC(=O)N3)[C@H](C)SC[C@H](NC2=O)C(=O)N[C@@H](Cc2c[nH]cn2)C(=O)N1)[C@@H](C)CC)C(C)C)C(=O)N[C@@H](CCCCN)C(=O)O` [K12M], for which, in assay [1], the “% of wild type” value was 118%. For the same molecule, the “% difference” value in assay [2] is 118%. Further, the MIC in assay [3] is 0.0156 µM (≈ 0.0524 µg/mL); in assay [4], 0.0625 µM (≈ 0.21 µg/mL); in assay [5], 0.0156 µM (≈ 0.0524 µg/mL); in assay [6], 0.0078 µM (≈ 0.0262 µg/mL); in assay [7], 0.125 µM (≈ 0.42 µg/mL); in assay [8], 0.0156 µM (≈ 0.0524 µg/mL).

Consider `C=C(NC(=O)[C@@H](NC(=O)[C@H](Cc1c[nH]cn1)NC(=O)[C@@H](NC(=O)[C@H](CO)NC(=O)[C@@H]1CS[C@@H](C)[C@H]2NC(=O)[C@H](C)NC(=O)[C@H](NC(=O)[C@H](CCCCN)NC(=O)[C@H](CCSC)NC(=O)[C@H](CC(N)=O)NC(=O)[C@@H]3CS[C@@H](C)[C@@H](NC(=O)[C@@H](NC(=O)[C@@H]4CS[C@@H](C)[C@@H](NC(=O)[C@@H]5CSC[C@@H](NC(=O)/C(=C/C)NC(=O)[C@@H](N)[C@@H](C)CC)C(=O)N[C@@H]([C@@H](C)CC)C(=O)NC(=C)C(=O)N[C@@H](CC(C)C)C(=O)N5)C(=O)N5CCC[C@H]5C(=O)NCC(=O)N4)[C@@H](C)O)C(=O)NCC(=O)N[C@@H](C)C(=O)N[C@@H](CC(C)C)C(=O)N[C@@H](CCSC)C(=O)NCC(=O)N3)[C@H](C)SC[C@H](NC2=O)C(=O)N[C@@H](Cc2c[nH]cn2)C(=O)N1)[C@@H](C)CC)C(C)C)C(=O)N[C@@H](CCCCN)C(=O)O` [K12T], for which, in assay [1], the “% of wild type” value is 140* (0.001) %. Moreover, the “% difference” value in assay [2] was 148* (.001) %. Moreover, the MIC in assay [3] is 0.0312 µM (≈ 0.104 µg/mL); in assay [4], 0.0625 µM (≈ 0.208 µg/mL); in assay [5], 0.0312 µM (≈ 0.104 µg/mL); in assay [6], 0.0156 µM (≈ 0.0519 µg/mL); in assay [7], 0.0625 µM (≈ 0.208 µg/mL); in assay [8], 0.0156 µM (≈ 0.0519 µg/mL).

With `C=C(NC(=O)[C@@H](NC(=O)[C@H](Cc1c[nH]cn1)NC(=O)[C@@H](NC(=O)[C@H](CO)NC(=O)[C@@H]1CS[C@@H](C)[C@H]2NC(=O)[C@H](C)NC(=O)[C@H](NC(=O)[C@H](CCCCN)NC(=O)[C@H](CCSC)NC(=O)[C@H](CC(N)=O)NC(=O)[C@@H]3CS[C@@H](C)[C@@H](NC(=O)[C@H](Cc4ccc(O)cc4)NC(=O)[C@@H]4CS[C@@H](C)[C@@H](NC(=O)[C@@H]5CSC[C@@H](NC(=O)/C(=C/C)NC(=O)[C@@H](N)[C@@H](C)CC)C(=O)N[C@@H]([C@@H](C)CC)C(=O)NC(=C)C(=O)N[C@@H](CC(C)C)C(=O)N5)C(=O)N5CCC[C@H]5C(=O)NCC(=O)N4)C(=O)NCC(=O)N[C@@H](C)C(=O)N[C@@H](CC(C)C)C(=O)N[C@@H](CCSC)C(=O)NCC(=O)N3)[C@H](C)SC[C@H](NC2=O)C(=O)N[C@@H](Cc2c[nH]cn2)C(=O)N1)[C@@H](C)CC)C(C)C)C(=O)N[C@@H](CCCCN)C(=O)O` [K12Y], the “% of wild type” value in assay [1] is 74%. In addition, the “% difference” value in assay [2] amounted to 94%. For the same molecule, the “fold better activity than nisin A” value in assay [3] is on record as 2 fold; in assay [6], 4 fold. Further, the minimum inhibitory concentration (MIC) is 26.4 µg/L and 0.0078 µM in assay [3]; 0.0312 µM (≈ 0.106 µg/mL) in assay [4]; 0.0156 µM (≈ 0.0529 µg/mL) in assay [5]; 6.6 µg/L and 0.00195 µM in assay [6]; 0.625 µM (≈ 2.12 µg/mL) in assay [7]; 0.0156 µM (≈ 0.0529 µg/mL) in assay [8].
